# Measured values: US8318746B2, “Nitrogen-containing five-membered heterocyclic compound” (Takeda Pharmaceutical Company Limited, priority 2007, dated 2012)
# Legend:
# [1] = biological target: T1, GST-hLGK1 (GST added to the amino terminal of human liver GK) (Homo sapiens, UniProt P35557); assay: Measurement of GK activation value; type: biochemical; settings: test compound final concentration 10 μmol/L; reaction rate divided by that of control group (50% DMSO without test compound); Mant-ATP substrate, D-glucose, 37° C., 60 min
# T1 construct: with a BamHI site added to immediately before the initiation codon; made in house; host or cells: Escherichia coli BL21 (Stratagene), plasmid pGEX6P-2/hLGK1
# T1 sequence (P35557 1-464 isoform P35557-3): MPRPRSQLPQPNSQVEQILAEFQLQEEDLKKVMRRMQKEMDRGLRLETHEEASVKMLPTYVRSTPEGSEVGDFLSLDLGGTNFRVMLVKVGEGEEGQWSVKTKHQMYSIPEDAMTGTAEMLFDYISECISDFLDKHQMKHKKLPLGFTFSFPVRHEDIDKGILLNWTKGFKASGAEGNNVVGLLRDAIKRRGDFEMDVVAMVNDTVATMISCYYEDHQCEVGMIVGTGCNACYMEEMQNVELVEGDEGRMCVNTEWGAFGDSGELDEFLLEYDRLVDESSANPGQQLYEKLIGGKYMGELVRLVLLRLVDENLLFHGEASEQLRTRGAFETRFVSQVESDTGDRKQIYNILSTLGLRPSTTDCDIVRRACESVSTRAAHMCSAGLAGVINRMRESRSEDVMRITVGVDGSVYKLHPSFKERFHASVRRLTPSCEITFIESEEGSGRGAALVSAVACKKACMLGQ
# Method: To each well of a 384-well black plate (Nalge Nunc International K.K.) was added 5 μL of 50% dimethyl sulfoxide solution containing test compound diluted to 100 μmol/L. Then, GST-hLGK1 obtained in Reference Example 2A was diluted with measurement buffer (containing 50 mM HEPES (pH 7.4), 200 mM KCl, 5 mM MgCl2, 2.5 mM DTT and 50 μM 2′-(or-3′)—O—(N-methylanthraniloyl) adenosine 5′-triphosphate (Mant-ATP) (Jena BioScience)) to 6 μg/mL and 35 μL thereof was added to each well.
# Each well was stood at 37° C. for 10 min, 25 mM D-glucose solution (10 μL) was added to start the reaction. The final concentration of the test compound was 10 μmol/L.
# Each, well after the reaction was stood at 37° C. for 60 min, and the reaction was quenched by adding 25 μL of a quenching solution (containing 200 mM HEPES (pH 7.4), 20 mM MgCl2, 200 mM EDTA, 0.03% Triton-X 100, 0.3% Coating 3 reagent (Caliper Life Sciences, Inc.)).
# 2′-(or-3′)-O-(N-methylanthraniloyl)adenosine 5′-triphosphate (Mant-ATP, substrate) and Mant-ADP (reaction resultant product) were separated from each well after the reaction by a microchip type capillary electrophoresis apparatus 250 HTS (Caliper Life Sciences, Inc.). The reaction rate [(reaction resultant product peak height)/(reaction resultant product peak height+substrate peak height)×100(%)] was calculated from the ratio of the substrate peak height and reaction resultant product peak height obtained by fluorescence detection (excitation wavelength 355 nm, measurement wavelength 460 nm) and used as the index of GK activity.
# As a control group, the reaction rate was calculated in the same manner as above except that “solution in 50% dimethyl sulfoxide (without test compound)” was used instead of “solution of test compound in 50% dimethyl sulfoxide”.
# The reaction rate of the well (test compound addition group) added with the test compound was divided by the reaction rate of the control group and the obtained percentage was taken as the GK activation value (Emax) of the test compound.
Structure (SMILES),Emax at 10 µM [1] [%],melting point [°C]
"O=S(=O)(c1ccc(C(CC2CCOCC2)c2ccc(-c3ccc(C(CO)CO)cn3)[nH]2)cc1)C1CC1 (stereo not shown) [Example 53, 2-[6-(5-{1-[4-(cyclopropylsulfonyl)phenyl]-2-(tetrahydro-2H-pyran-4-yl)ethyl}-1H-pyrrol-2-yl)pyridin-3-yl]propane-1,3-diol]",148,
"CCCC(=O)c1[nH]c(C(CC2CCCC2)c2ccc(S(C)(=O)=O)cc2)nc1F (stereo not shown) [Example 17, 1-(2-{2-cyclopentyl-1-[4-(methylsulfonyl)phenyl]ethyl}-4-fluoro-1H-imidazol-5-yl)butan-1-one]",188,
"Cc1cc(C(CC2CCCC2)c2ccc(S(C)(=O)=O)cc2)[nH]c1-c1nccs1 (stereo not shown) [Example 11, 2-(5-{2-cyclopentyl-1-[4-(methylsulfonyl)phenyl]ethyl}-3-methyl-1H-pyrrol-2-yl)-1,3-thiazole]",160,
"Cn1ccc(-c2ccc(C(CC3CCCC3)c3ccc(S(C)(=O)=O)cc3)[nH]2)n1 (stereo not shown) [Example 6, 3-(5-{2-cyclopentyl-1-[4-(methylsulfonyl)phenyl]ethyl}-1H-pyrrol-2-yl)-1-methyl-1H-pyrazole]",198,
"CS(=O)(=O)c1ccc(C(CC2CCCC2)c2ccc(-c3cnccn3)[nH]2)cc1 (stereo not shown) [Example 3, 2-(5-{2-cyclopentyl-1-[4-(methylsulfonyl)phenyl]ethyl}-1H-pyrrol-2-yl)pyrazine]",180,
"CC(O)c1cnc(-c2ccc(C(CC3CCOCC3)c3ccc(S(=O)(=O)C4CC4)cc3)[nH]2)s1 (stereo not shown) [Example 151, 1-[2-(5-[1-[4-(cyclopropylsulfonyl)phenyl]-2-(tetrahydro-2H-pyran-4-yl)ethyl]-1H-pyrrol-2-yl)-1,3-thiazol-5-yl]ethanol]",167,
"O=S(=O)(c1ccc(C(CC2CCOCC2)c2ccc(-c3ccc(CN4CC[S+]([O-])CC4)cn3)[nH]2)cc1)C1CC1 (stereo not shown) [Example 59, 4-{[6-(5-{1-[4-(cyclopropylsulfonyl)phenyl]-2-(tetrahydro-2H-pyran-4-yl)ethyl}-1H-pyrrol-2-yl)pyridin-3-yl]methyl}thiomorpholine 1-oxide]",151,
"CC(C)(O)C(O)c1ccc(-c2ccc(C(CC3CCOCC3)c3ccc(S(=O)(=O)C4CC4)cc3)[nH]2)nc1 (stereo not shown) [Example 127, 1-[6-(5-{1-[4-(cyclopropylsulfonyl)phenyl]-2-(tetrahydro-2H-pyran-4-yl)ethyl}-1H-pyrrol-2-yl)pyridin-3-yl]-2-methylpropane-1,2-diol]",139,
O=S1(=O)CCN(Cc2ccc(-c3ccc(C(CC4CCOCC4)c4ccc(S(=O)(=O)C5CC5)cc4)[nH]3)nc2)CC1 (stereo not shown) [Example 63],154,
"O=S(=O)(c1ccc(C(CC2CCOCC2)c2ccc(-c3nccs3)[nH]2)cc1)C1CC1 (stereo not shown) [Example 7, 2-{5-[1-[4-(cyclopropylsulfonyl)phenyl]-2-(tetrahydro-2H-pyran-4-yl)ethyl]-1H-pyrrol-2-yl}-1,3-thiazole]",179,
"Cn1ccnc1-c1ccc(C(CC2CCCC2)c2ccc(S(C)(=O)=O)cc2)[nH]1 (stereo not shown) [Example 4, 2-(5-{2-cyclopentyl-1-[4-(methylsulfonyl)phenyl]ethyl}-1H-pyrrol-2-yl)-1-methyl-1H-imidazole]",227,
"O=C1CC[C@H](CC(c2ccc(S(=O)(=O)C3CC3)cc2)c2nc(F)c(C(=O)C3CCC3)[nH]2)C1 (stereo partly drawn) [Example 29, (3R)-3-{2-[5-(cyclobutylcarbonyl)-4-fluoro-1H-imidazol-2-yl]-2-[4-(cyclopropylsulfonyl)phenyl]ethyl}cyclopentanone]",218,

# More lines, now with the values ahead:
Emax at 10 µM [1] [%],melting point [°C],Structure (SMILES)
129,,"O=S(=O)(c1ccc(C(CC2CCOCC2)c2ccc(-c3nnc(CN4CC(O)C4)s3)[nH]2)cc1)C1CC1 (stereo not shown) [Example 227, 1-{[5-(5-{1-[4-(cyclopropylsulfonyl)phenyl]-2-(tetrahydro-2H-pyran-4-yl)ethyl}-1H-pyrrol-2-yl)-1,3,4-thiadiazol-2-yl]methyl}azetidin-3-ol]"
171,,"COCC(O)c1ccc(-c2ccc(C(CC3CCOCC3)c3ccc(S(=O)(=O)C4CC4)cc3)[nH]2)nc1 (stereo not shown) [Example 177, 1-[6-(5-[1-[4-(cyclopropylsulfonyl)phenyl]-2-(tetrahydro-2H-pyran-4-yl)ethyl]-1H-pyrrol-2-yl)pyridin-3-yl]-2-methoxyethanol]"
148,,"COC(OC)C(C)(O)c1cnc(-c2ccc(C(CC3CCOCC3)c3ccc(S(=O)(=O)C4CC4)cc3)[nH]2)s1 (stereo not shown) [Example 164, 2-[2-(5-{1-[4-(cyclopropylsulfonyl)phenyl]-2-(tetrahydro-2H-pyran-4-yl)ethyl}-1H-pyrrol-2-yl)-1,3-thiazol-5-yl]-1,1-dimethoxypropan-2-ol]"
141,,"CC(O)c1nnc(-c2ccc(C(CC3CCOCC3)c3ccc(S(=O)(=O)C4CC4)cc3)[nH]2)s1 (stereo not shown) [Example 225, 1-[5-(5-{1-[4-(cyclopropylsulfonyl)phenyl]-2-(tetrahydro-2H-pyran-4-yl)ethyl}-1H-pyrrol-2-yl)-1,3,4-thiadiazol-2-yl]ethanol]"
145,,"O=S(=O)(c1ccc(C(CC2CCOCC2)c2ccc(-c3nnc(CN4CCOCC4)s3)[nH]2)cc1)C1CC1 (stereo not shown) [Example 228, 4-{[5-(5-{1-[4-(cyclopropylsulfonyl)phenyl]-2-(tetrahydro-2H-pyran-4-yl)ethyl}-1H-pyrrol-2-yl)-1,3,4-thiadiazol-2-yl]methyl}morpholine]"
152,152 to 153,"O=S(=O)(c1ccc(C(CC2CCOCC2)c2ccc(-c3ccc(Cn4cncn4)cn3)[nH]2)cc1)C1CC1 (stereo not shown) [Example 237, 2-(5-{1-[4-(cyclopropylsulfonyl)phenyl]-2-(tetrahydro-2H-pyran-4-yl)ethyl}-1H-pyrrol-2-yl)-5-(1H-1,2,4-triazol-1-ylmethyl)pyridine]"
155,127 to 129,"CCS(=O)(=O)CCNCc1cnc(-c2ccc(C(CC3CCOCC3)c3ccc(S(=O)(=O)C4CC4)cc3)[nH]2)s1.Cl (stereo not shown) [Example 160, N-{[2-(5-{1-[4-(cyclopropylsulfonyl)phenyl]-2-(tetrahydro-2H-pyran-4-yl)ethyl}-1H-pyrrol-2-yl)-1,3-thiazol-5-yl]methyl}-2-(ethylsulfonyl)ethanamine hydrochloride]"
148,,"CC(O)c1cnc(-c2ccc(C(CC3CCOCC3)c3ccc(S(C)(=O)=O)c(Cl)c3)[nH]2)s1 (stereo not shown) [Example 172, 1-[2-(5-{1-[3-chloro-4-(methylsulfonyl)phenyl]-2-(tetrahydro-2H-pyran-4-yl)ethyl}-1H-pyrrol-2-yl)-1,3-thiazol-5-yl]ethanol]"
